Assay results published in patent US9169243B2, “Apoptosis signal-regulating kinase inhibitors” (Gilead Sciences, Inc., priority 2013, dated 2015).

biological target: recombinant human ASK1 kinase (Homo sapiens (Human), UniProt Q99683); experiment: TR-FRET ASK1 (Apoptosis Signal-Regulating Kinase 1) kinase assay; assay type: biochemical; conditions: TR-FRET/HTRF, 4 nM ASK1, 1 μM STK3 peptide substrate, 100 μM ATP, 3 hr; average of quadruplicate determination
From the text: I. TR-FRET ASK1 (Apoptosis Signal-Regulating Kinase 1) Kinase Assay
To evaluate the inhibitory activity of compounds of the invention against ASK1 (Apoptosis Signal-regulating Kinase 1) kinase, its activity was examined using a TR-FRET ASK1 kinase assay which determined the amount of phosphate transferred to a peptide substrate from ATP.
Dephosphorylated recombinant human ASK1 kinase was from Gilead Sciences. Small molecule kinase inhibitor staurosporine (Catalogue #S6942) and dithiothreitol (DTT, catalogue #43815-5G) were obtained from Sigma Chemicals (St. Louis, Mo.). ATP (catalogue #7724) was from Affymetrix (Santa Clara, Calif.) and test compounds were from Gilead Sciences. HTRF KinEASE™-STK S3 kit was obtained from Cisbio (Bedford, Mass.). All other reagents were of the highest grade commercially available.
The assay measures the phosphorylation level of a biotinylated peptide substrate by the ASK1 kinase using HTRF detection. This is a competitive, time-resolved fluorescence resonance energy transfer (TR-FRET) immunoassay, based on HTRF® KinEASE™-STK manual from Cisbio. Test compound, 1 μM STK3 peptide substrate, 4 nM of ASK1 kinase were incubated with 10 mM MOP buffer, pH. 7.0 containing 10 mM Mg-acetate, 0.025% NP-40, 1 mM DTT, 0.05% BSA and 1.5% glycerol for 30 minutes then 100 μM ATP was added to start the kinase reaction and incubated for 3 hr. Peptide antibody labeled with 1×Eu^3+ Cryptate buffer containing 10 mM EDTA and 125 nM Streptavidin XL665 were added to stop the reaction and phosphorylated peptide substrate was detected using Envision 2103 Multilabeled reader from PerkinElmer. The fluorescence was measured at 615 nm (Cryptate) and 665 nm (XL665) and a ratio of 665 nm/615 nm was calculated for each well. The resulting TR-FRET level (a ratio of 665 nm/615 nm) was proportional to the phosphorylation level. Under these assay conditions, the degree of phosphorylation of peptide substrate was linear with time and concentration for the enzyme. The assay system yielded consistent results with regard to Km and specific activities for the enzyme. For inhibition experiments (IC50 values), activities were performed with constant concentrations of ATP, peptide and several fixed concentrations of inhibitors. Staurosporine, the nonselective kinase inhibitor, was used as the positive control. All enzyme activity data are reported as an average of quadruplicate determination.
The IC50 values were calculated following equation: y=Range/{1+(x/IC50)^s}+Background where x and y represent the concentration of inhibitors and enzyme activity, respectively. Enzyme activity is expressed as the amount of Phosphate incorporated into substrate peptide from ATP. Range is the maximum y range (no inhibitor, DMSO control) and s is a slope factor.

Sequence of recombinant human ASK1 kinase (Q99683 whole entry): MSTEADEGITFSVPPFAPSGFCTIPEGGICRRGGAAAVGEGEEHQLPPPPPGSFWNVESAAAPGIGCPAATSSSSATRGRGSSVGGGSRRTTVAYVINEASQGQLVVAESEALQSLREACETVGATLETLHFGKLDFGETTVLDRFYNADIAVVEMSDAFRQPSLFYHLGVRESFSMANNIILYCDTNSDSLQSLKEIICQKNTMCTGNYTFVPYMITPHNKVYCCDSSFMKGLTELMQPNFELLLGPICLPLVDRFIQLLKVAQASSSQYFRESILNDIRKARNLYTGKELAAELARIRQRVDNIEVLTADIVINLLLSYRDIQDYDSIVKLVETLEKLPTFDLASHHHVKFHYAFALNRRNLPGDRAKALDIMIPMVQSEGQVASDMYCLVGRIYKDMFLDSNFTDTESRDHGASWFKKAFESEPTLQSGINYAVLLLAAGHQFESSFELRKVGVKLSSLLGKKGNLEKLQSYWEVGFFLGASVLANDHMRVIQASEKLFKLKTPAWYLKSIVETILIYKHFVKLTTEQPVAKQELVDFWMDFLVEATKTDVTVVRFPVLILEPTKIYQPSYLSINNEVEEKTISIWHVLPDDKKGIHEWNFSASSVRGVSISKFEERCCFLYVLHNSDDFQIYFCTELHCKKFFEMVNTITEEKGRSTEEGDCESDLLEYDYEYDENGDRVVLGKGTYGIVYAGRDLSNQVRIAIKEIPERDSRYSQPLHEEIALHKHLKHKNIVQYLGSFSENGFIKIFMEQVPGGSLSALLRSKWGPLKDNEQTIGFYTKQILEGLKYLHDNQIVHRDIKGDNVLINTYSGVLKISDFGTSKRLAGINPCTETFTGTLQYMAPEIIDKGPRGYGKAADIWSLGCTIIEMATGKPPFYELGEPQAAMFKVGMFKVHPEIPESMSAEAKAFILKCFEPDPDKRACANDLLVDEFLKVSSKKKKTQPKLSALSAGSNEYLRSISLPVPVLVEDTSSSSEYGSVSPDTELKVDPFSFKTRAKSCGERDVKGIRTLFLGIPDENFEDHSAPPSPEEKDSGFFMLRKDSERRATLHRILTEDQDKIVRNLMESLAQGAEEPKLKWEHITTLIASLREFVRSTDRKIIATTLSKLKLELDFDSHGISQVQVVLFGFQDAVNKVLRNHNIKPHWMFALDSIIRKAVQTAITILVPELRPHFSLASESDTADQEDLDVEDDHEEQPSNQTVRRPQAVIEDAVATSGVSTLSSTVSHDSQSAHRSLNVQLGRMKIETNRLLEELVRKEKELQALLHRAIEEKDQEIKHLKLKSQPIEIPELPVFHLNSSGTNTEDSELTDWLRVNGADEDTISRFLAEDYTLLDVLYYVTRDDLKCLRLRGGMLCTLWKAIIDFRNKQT

IC50 [nM] | Structure (SMILES)
2.7 | O=C(Nc1csc(-c2nncn2C2CC2)n1)c1cc(-n2cnc(C3CC3)c2)c(N2CCN3C(=O)OCC3C2)cn1 (stereo not drawn) [Compound 16, 4-(4-cyclopropylimidazol-1-yl)-N-[2-(4-cyclopropyl-l,2,4-triazol-3-yl)-1,3-thiazol-4-yl]-5-(3-oxo-5,6,8,8a-tetrahydro-1H-[1,3]oxazolo[3,4-a]pyrazin-7-yl)pyridine-2-carboxamide]
2.3 | CNC(=O)C1CCN(c2cnc(C(=O)Nc3csc(-c4nncn4[C@@H](C)C(F)(F)F)n3)cc2-n2cnc(C3CC3)c2)CC1 [Compound 31, (S)-4-(4-cyclopropyl-1H-imidazol-1-yl)-5-(4-(methylcarbamoyl)piperidin-1-yl)-N-(2-(4-(1,1,1-trifluoropropan-2-yl)-4H-1,2,4-triazol-3-yl)thiazol-4-yl)picolinamide]
2.3 | COC1CCN(c2cnc(C(=O)Nc3csc(-c4nncn4[C@@H](C)C(F)(F)F)n3)cc2-n2cnc(C3CC3)c2)CC1 [Compound 30, (S)-4-(4-cyclopropyl-1H-imidazol-1-yl)-5-(4-methoxypiperidin-1-yl)-N-(2-(4-(1,1,1-trifluoropropan-2-yl)-4H-1,2,4-triazol-3-yl)thiazol-4-yl)picolinamide]
14.2 | COC1(C)CCN(c2cnc(C(=O)Nc3csc(-c4nncn4C4CC4)n3)cc2-n2cnc(C3CC3)c2)CC1 [Compound 12, 4-(4-cyclopropylimidazol-1-yl)-N-[2-(4-cyclopropyl-1,2,4-triazol-3-yl)-1,3-thiazol-4-yl]-5-(4-methoxy-4-methylpiperidin-1-yI)pyridine-2-carboxamide]
1.7 | C[C@H](n1cnnc1-c1nc(NC(=O)c2cc(-n3cnc(C4CC4)c3)c(N3CCC(F)CC3)cn2)cs1)C(F)(F)F [Compound 34, (S)-4-(4-cyclopropyl-1H-imidazol-1-yl)-5-(4-fluoropiperidin-1-yl)-N-(2-(4-(1,1,1-trifluoropropan-2-yl)-4H-1,2,4-triazol-3-yl)thiazol-4-yl)picolinamide]
2.5 | O=C(Nc1csc(-c2nncn2C2CC2)n1)c1cc(-n2cnc(C3CC3)c2)c(N2CCC(F)CC2)cn1 [Compound 8, 4-(4-cyclopropylimidazol-1-yl)-N-[2-(4-cyclopropyl-1,2,4-triazol-3-yl)-1,3-thiazol-4-yl]-5-(4-fluoropiperidin-1-yl)pyridine-2-carboxamide]
0.9 | N#CC1CN(c2cnc(C(=O)Nc3csc(-c4nncn4C4CC4)n3)cc2-n2cnc(C3CC3)c2)C1 [Compound 2, 5-(3-cyanoazetidin-1-yl)-4-(4-cyclopropylimidazol-1-yl)-N-[2-(4-cyclopropyl-1,2,4-triazol-3-yl)-1,3-thiazol-4-yl]pyridine-2-carboxamide]
2.5 | O=C(Nc1csc(-c2nncn2C2CC2)n1)c1cc(-n2cnc(C3CC3)c2)c(N2CCN(CC3CC3)CC2)cn1 [Compound 20, 4-(4-cyclopropylimidazol-1-yl)-5-[4-(cyclopropylmethyl)piperazin-1-yl]-N-[2-(4-cyclopropyl-1,2,4-triazol-3-yl)-1,3-thiazol-4-yl]pyridine-2-carboxamide]
1.1 | O=C(Nc1csc(-c2nncn2C2CC2)n1)c1cc(-n2cnc(C3CC3)c2)c(N2CC3CC3C2)cn1 (stereo not drawn) [Compound 17, 5-(3-azabicyclo[3.1.0]hexan-3-yl)-4-(4-cyclopropylimidazol-1-yl)-N-[2-(4-cyclopropyl-1,2,4-triazol-3-yl)-3,3-thiazol-4-yl]pyridine-2-carboxamide]
1.8 | C[C@H](n1cnnc1-c1nc(NC(=O)c2cc(-n3cnc(C4CC4)c3)c(N3CCN(C4CC4)CC3)cn2)cs1)C(F)(F)F [Compound 42, (S)-4-(4-cyclopropyl-1H-imidazol-1-yl)-5-(4-cyclopropylpiperazin-1-yl)-N-(2-(4-(1,1,1-trifluoropropan-2-yl)-4H-1,2,4-triazol-3-yl)thiazol-4-yl)picolinamide]
1.8 | C[C@H](n1cnnc1-c1nc(NC(=O)c2cc(-n3cnc(C4CC4)c3)c(N3CCN(CC4CC4)CC3)cn2)cs1)C(F)(F)F [Compound 43, (S)-4-(4-cyclopropyl-1H-imidazol-1-yl)-5-(4-(cyclopropylmethyl)piperazin-1-yl)-N-(2-(4-(1,1,1-trifluoropropan-2-yl)-4H-1,2,4-triazol-3-yl)thiazol-4-yl)picolinamide]
2.2 | O=C(Nc1csc(-c2nncn2C2CC2)n1)c1cc(-n2cnc(C3CC3)c2)c(N2CC(C(F)F)C2)cn1 [Compound 1, 4-(4-cyclopropylimidazol-1-yl)-N-[2-(4-cyclopropyl-1,2,4-triazol-3-yl)-1,3-thiazol-4-yl]-5-[3-(difluoromethyl)azetidin-1-yl]pyridine-2-carboxamide]
1.8 | C[C@H](n1cnnc1-c1nc(NC(=O)c2cc(-n3cnc(C4CC4)c3)c(N3CCN4CCCC4C3)cn2)cs1)C(F)(F)F (stereo partly drawn) [Compound 37, 4-(4-cyclopropyl-1H-imidazol-1-yl)-5-(hexahydropyrrolo[1,2-a]pyrazin-2(1H)-yl)-N-(2-(4-((S)-1,1,1-trifluoropropan-2-yl)-4H-1,2,4-triazol-3-yl)thiazol-4-yl)picolinamide]
2.8 | COC1CCN(c2cnc(C(=O)Nc3csc(-c4nncn4C4CC4)n3)cc2-n2cnc(C3CC3)c2)C1 (stereo not drawn) [Compound 6, 4-(4-cyclopropylimidazol-1-yl)-N-[2-(4-cyclopropyl-1,2,4-triazol-3-yl)-1,3-thiazol-4-yl]-5-(3-methoxypyrrolidin-1-yl)pyridine-2-carboxamide]
2.6 | C[C@H](n1cnnc1-c1nc(NC(=O)c2cc(-n3cnc(C4CC4)c3)c(N3CC4(CCOCC4)C3)cn2)cs1)C(F)(F)F [Compound 45, (S)-4-(4-cyclopropyl-1H-imidazol-1-yl)-5-(7-oxa-2-azaspiro[3.5]nonan-2-yl)-N-(2-(4-(1,1,1-trifluoropropan-2-yl)-4H-1,2,4-triazol-3-yl)thiazol-4-yl)picolinamide]
3.8 | O=C(Nc1csc(-c2nncn2C2CC2)n1)c1cc(-n2cnc(C3CC3)c2)c(N2CCCOCC2)cn1 [Compound 14, 4-(4-cyclopropylimidazol-1-yl)-N-[2-(4-cyclopropyl-1,2,4-triazol-3-yl)-1,3-thiazol-4-yl]-5-(1,4-oxazepan-4-yl)pyridine-2-carboxamide]
2.2 | N#CC1CCN(c2cnc(C(=O)Nc3csc(-c4nncn4C4CC4)n3)cc2-n2cnc(C3CC3)c2)CC1 [Compound 9, 5-(4-cyanopiperidin-1-yl)-4-(4-cyclopropylimidazol-1-yl)-N-[2-(4-cyclopropyl-1,2,4-triazol-3-yl)-1,3-thiazol-4-yl]pyridine-2-carboxamide]
4.5 | O=C(Nc1csc(-c2nncn2C2CC2)n1)c1cc(-n2cnc(C3CC3)c2)c(N2CC3(CCOCC3)C2)cn1 [Compound 22, 4-(4-cyclopropylimidazol-1-yl)-N-[2-(4-cyclopropyl-1,2,4-triazol-3-yl)-1,3-thiazol-4-yl]-5-(7-oxa-2-azaspiro[3.5]nonan-2-yl)pyridine-2-carboxamide]
2.3 | O=C(Nc1csc(-c2nncn2C2CC2)n1)c1cc(-n2cnc(C3CC3)c2)c(N2CC(N3CCOCC3)C2)cn1 [Compound 18, 4-(4-cyclopropylimidazol-1-yl)-N-[2-(4-cyclopropyl-1,2,4-triazol-3-yl)-1,3-thiazol-4-yl]-5-(3-morpholin-4-ylazetidin-1-yl)pyridine-2-carboxamide]
2.1 | C[C@H](n1cnnc1-c1nc(NC(=O)c2cc(-n3cnc(C4CC4)c3)c(N3CCC(F)(F)C3)cn2)cs1)C(F)(F)F [Compound 27, (S)-4-(4-cyclopropyl-1H-imidazol-1-yl)-5-(3,3-difluoropyrrolidin-1-yl)-N-(2-(4-(1,1,1-trifluoropropan-2-yl)-4H-1,2,4-triazol-3-yl)thiazol-4-yl)picolinamide]
1.7 | C[C@H](n1cnnc1-c1nc(NC(=O)c2cc(-n3cnc(C4CC4)c3)c(N3CCC(C#N)CC3)cn2)cs1)C(F)(F)F [Compound 29, (S)-5-(4-cyanopiperidin-1-yl)-4-(4-cyclopropyl-1H-imidazol-1-yl)-N-(2-(4-(1,1,1-trifluoropropan-2-yl)-4H-1,2,4-triazol-3-yl)thiazol-4-yl)picolinamide]
